Experimental data published in patent US20240335404A1, “SUBSTITUTED ESTERS CONTAINING POLYOLS AND SACCHARIDES FOR TREATING HEPATOTOXICITY AND FATTY LIVER DISEASES” (SINEW PHARMA INC., priority 2015, published 2024).
Like-named read-outs stand apart in the source and are kept apart here.

How the values were obtained:
HepG2 fatty liver cells = test: TG content in oleic acid-induced fatty liver cells from HepG2; assay type: cell-based, human; conditions: tested substances 1.0 μM
Protocol: The activity of the various ingredients as described herein, including mannitol and sucralose and others, in reduction of fat content was analyzed by using human hepatoma cell line Hep G2.
HepG2 cell lines (15×10^6 cells) were cultured in DMEM culture No. B, incubated in an incubator with 5% CO2 at 37° C. for 24 hours, cultured in DMEM culture No. C (serum-free medium) for 24 hours, and finally cultured in DMEM culture No. D (containing oleate/albumin complex) for another 48 hours to induce HepG2 cell lines to form fatty liver cells.
HepG2 cell lines were divided into six groups, including: (1) Blank: no treatment; (2) DMSO group: cells from Blank were treated with dimethyl sulfoxide (DMSO); (3) Control: induction with oleic acid to form fatty liver cells; (4) Vehicle group: fatty liver cells formed by induction with oleic acid were treated with DMSO; (5) Positive control: fatty liver cells were treated with silyrnarin; and (6) Test Group: fatty liver cells were treated with various compounds of the present invention.
After incubation for 72 hours, the treated cells from each group were successively washed twice in PBS, and then incubated with 0.5 ml of trypsin/EDTA for 3 minutes. Afterwards, the cells were scraped with 2 ml of PBS and then transferred to the centrifuge tube to be shattered by ultrasonic. A volume of 20 μl cell extracts was taken to determine the content of protein. TG determination was performed using commercially available combination of agents (Randox). The TG content obtained above was divided by the protein content to get a ratio, which represented the relative content of TG in cells.
The equation for calculating reduction rate (%) of TG was as follows: [1−(TG content of Test Group−TG content of Blank)/(TG content of Oleic acid induction Group−TG content of Blank)]×100%.

[1] = system: Liver Injuries Induced by CCl4; test: Liver injuries induced by CCl4 in mice (GSP, AST/ALT, HAI); assay type: in vivo; conditions: CCl4-induced liver injuries; dose less than or equivalent to 100 mg per person
Protocol: In the normal control, animals were administered with normal saline by intraperitoneal injection. In the control group of CCl4 induced liver injuries, animals were intraperitoneally injected with 10 ml/kg CCl4 (40% in corn oil) to induce hepatotoxicity. In the experimental group, animals were intraperitoneally injected with 10 ml/kg CCl4 (40% in corn oil) to induce hepatotoxicity, and 4 hours later, different ingredients of the present invention were administered by tube feeding. Blood was collected from the mice before administration with the ingredients of the present invention or at 24 hours after administration with the ingredients of the present invention for AST/ALT assays. Finally, animals were sacrificed at day 2 and blood were collected for AST/ALT assay and histological analysis was performed.
On the other hand, other experimental groups of mice were fed with the ingredients of the present invention for 12 weeks and the mice were subjected to GSP tests.
(§1) Liver damage is quantified by measuring plasma AST and ALT activity. AST and ALT are common indicators of hepatotoxicity and are measured by using the Synchron LXi 725 system (Beckman Instruments, U.S.).
Following scarification of the rats, histological analysis was performed. Liver samples were fixed with 10% phosphate-buffered formalin, dehydrated an embedded in paraffin, Sections were prepared in 5 μm thickness and then stained with hematoxylin and eosin and subjected to Periodic acid Schiff stain (PAS). The stained sections were observed under the optic microscope.
After the study was completed, all rats were subjected to GSP test. Rats were i.v. injected with 0.4 g/ml BW galactose solution 0.5 g/kg within 30 seconds and one blood sample was collected at 5, 10, 15, 30, 45 and 60 minutes post injection from the tail vein. Colorimetric galactose dehydrogenase is used to quantify the concentration of galactose and the test concentration ranges from 50 to 1,000 μg/ml. The within-day variation of each concentration is calculated using standard deviation and coefficient of variation (CV) and the maximum allowable coefficient of variation is 10% CV, whereas day-to-day variation is examined by comparing the slope and intercept of calibration curves. The GSP is the blood galactose concentration obtained 60 seconds after stopping the 30-second injection.
All data are represented in mean±standard deviation (SD) and the results are calculated using ANOVA to determine the significance. Statistical Package of the Social Science program (Version 13, SPSS Inc.) is used for calculations followed by post hoc test to examine the least significant difference for multiple comparisons so as to confirm the significant differences between groups and the average difference between groups was significant p<0.05.

CYP2E1 = CYP2E1 (Homo sapiens, UniProt P05181); conditions: microsomes, 30 min, pH 7.4
Protocol: After addition of the test sample, the amount of CYP450 isozyme metabolite standard 6-OH-CZX (6-Hydroxy-Chlorzoxazone) is specific used for calculation of the CYP450 isozyme (CYP2E1) inhibition ratio of the test sample by using the amount of 6-OH-CZX of the control group as the baseline.
All samples were tested in triplicate. To determine the percentage inhibition, each test compound was dissolved in 1, 2, 4 μg/mL to three different concentrations. The CYP2E1 activity levels in the presence of the test compounds were compared with the control incubations. The 500-μL reaction mixture, containing 0.5 mg of microsomal protein, was incubated with 320 μM CZX in the presence of 5 mM MgCl2 and 1 mM NADPH in 50 mM phosphate buffer with pH 7.4 at 37° C. for 30 min. The reaction was terminated by ice-cold acetonitrile, and then 4-hydroxyl tolbutamide was added as an internal standard. The organic phase was evaporated to dryness and reconstituted into the mobile phase (methanol:water=1:1) prior to liquid chromatography-tandem mass spectrometry (LC-MS/MS) analysis. An API 3000 triple-quadrupole mass spectrometer equipped with an ion-spray (ESI) source was used to determine 6-OH-CZX in the human liver microsomes. The ESI interface was used in the positive-ion mode. The 6-OH-CZX was monitored at a transition of m/z 284.5→185.9.
The CYP450 isozyme activity levels in the presence of the test compounds were compared with the control incubations.

[2] = system: Liver Injuries Induced by APAP; test: Liver injuries induced by APAP in rats (GSP, AST/ALT, HAI, survival); assay type: in vivo, SD (Sprague-Dawley) rats; conditions: APAP 2,000 mg/kg, 140 mg/kg of NAC followed by 5 × 70 mg/kg NAC at 4 h intervals
Protocol: Male SD (Sprague-Dawley) rats weighing 175-280 g were purchased from the National Laboratory Animal Center (NLAC), Taiwan. The study was conducted in accordance with the Guidelines for Conducting Animal Studies of the National Health Research Institute and all rats were placed in the air/humidity controlled environment under the 12 hours of day/12 hours of night cycle and with unlimited water and food supply. During the course of the study, the weights of rats were monitored continuously with normal water supply.
In the normal control (Group 1), animals were not fed with APAP. In the control group of APAP-induced liver injuries (Group 2), animals were fed with a single dose of APAP in the amount of 2,000 mg per kilogram of body weight to induce hepatotoxicity. In the positive control group of treatment with NAC (Group 3), animals were fed with a single dose of APAP in the amount of 2,000 mg per kilogram of body weight to induce hepatotoxicity, and 4 hours later, a 24-hour treatment period by tube feeding was started, including first administration of 140 mg of NAC (per kilogram of body weight) and later administration of 70 mg of NAC (per kilogram of body weight) every 4 hours for five times. In the experimental group (Group 4), animals were fed with a single dose of APAP in the amount of 2,000 mg per kilogram of body weight to induce hepatotoxicity, and 4 hours later, a 24-hour treatment period by tube feeding was started, including six dosing with the ingredients of the present invention every 4 hours, as follows: • (a) (Group 4.1): administration of mannitol at a dose less than or equivalent to 100 mg per person every 4 hours for 24 hours, • (b) (Group 4.2): administration of double dose of mannitol as in Group 4.1 every 4 hours for 24 hours, • (c) (Group 4.3): administration of sucralose at a dose less than or equivalent to 100 mg per person every 4 hours for 24 hours, • (d) (Group 4.4): administration of double dose of sucralose of Group 4.3 every 4 hours for 24 hours, • (e) (Group 4.5): administration of a combination of 0.5 times the dose of mannitol as in Group 4.1 and 0.5 times the dose of sucralose as in Group 4.3 per kilogram of body weight every 4 hours for 24 hours, • (f) (Group 4.6): administration of a combination of the dose of mannitol as in Group 4.1 and the dose of sucralose as in Group 4.3 every 4 hours for 24 hours, • (g) (Group 4.7): administration of a combination of 1.5 times the dose of mannitol as in Group 4.1 and 1.5 times the dose of sucralose as in Group 4.3 every 4 hours for 24 hours, • (h) (Group 4.8): administration of a combination of double dose of mannitol as in Group 4.1 and double dose of sucralose as in Group 4.3 every 4 hours for 24 hours, and • (i) (Group 4.9): first administration of 140 mg of NAC per kilogram of body weight and later administration of a combination of 70 mg of NAC plus double dose of mannitol as in Group 4.1 and double dose of sucralose as in Group 4.3 every 4 hours for five times.
After the 24-hour treatment period, blood was collected from the tail artery of the rats for AST/SLT assays. Subsequently, rats were subjected to GSP tests. Finally, rats were sacrificed and histological analysis was performed.
After completion of the treatments, rats were sacrificed under ether anesthesia, and blood was collected from the tail artery of the rats and placed in a test tube containing EDTA. The plasma was centrifuged at 13,000 at 4° C. for 15 minutes and the isolated plasma was transferred to Eppendorf tubes in aliquots and stored at −80° C.
as §1
Following scarification of the rats, histological analysis was performed.

CYP2E1, sequence (P05181 whole entry): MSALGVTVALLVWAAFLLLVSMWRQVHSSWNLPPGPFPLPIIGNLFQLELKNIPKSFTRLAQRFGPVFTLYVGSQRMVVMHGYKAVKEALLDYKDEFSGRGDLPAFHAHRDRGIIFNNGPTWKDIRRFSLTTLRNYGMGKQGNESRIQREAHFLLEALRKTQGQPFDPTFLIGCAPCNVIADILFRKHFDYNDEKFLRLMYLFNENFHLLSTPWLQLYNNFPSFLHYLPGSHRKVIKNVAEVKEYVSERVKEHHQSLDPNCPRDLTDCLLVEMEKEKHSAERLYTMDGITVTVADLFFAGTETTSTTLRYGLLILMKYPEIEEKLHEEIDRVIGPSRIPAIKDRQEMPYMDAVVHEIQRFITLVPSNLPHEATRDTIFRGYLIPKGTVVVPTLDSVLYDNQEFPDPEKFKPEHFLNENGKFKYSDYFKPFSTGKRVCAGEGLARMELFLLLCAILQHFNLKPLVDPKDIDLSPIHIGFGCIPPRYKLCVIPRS

With `Oc1cc(O)c2c(c1)O[C@H](c1cc(O)c(O)c(O)c1)[C@H](O)C2` [(−)-Epigallocatechin] the “TG reduction rate (%)” value (HepG2 fatty liver cells) was 36.78 ± 6.67%.
For `O=c1c(O)c(-c2ccc(O)c(O)c2)oc2cc(O)cc(O)c12` [quercetin], the ALT [1] was 93 ± 26 IU/L, the AST [1] was 115 ± 40 IU/L and the GSP [1] was 286 ± 70 mg/L. The “Total HAI score” value [1] was 1.1 ± 0.7.
With `COc1ccc(O)c(C(C)(C)C)c1` [Butylated hydroxyanisole] the “TG reduction rate (%)” value (HepG2 fatty liver cells) was 6.21 ± 3.8%.
For `COc1ccc(-c2cc(=O)c3c(O)cc(O[C@@H]4O[C@H](CO[C@@H]5O[C@@H](C)[C@H](O)[C@@H](O)[C@H]5O)[C@@H](O)[C@H](O)[C@H]4O)cc3o2)cc1` [Linarin], the “TG reduction rate (%)” value (HepG2 fatty liver cells) was 9.24 ± 12.34%.
In the case of `COc1ccc([C@@H]2CC(=O)c3c(O)cc(O[C@@H]4O[C@H](CO[C@@H]5O[C@@H](C)[C@H](O)[C@@H](O)[C@H]5O)[C@@H](O)[C@H](O)[C@H]4O)cc3O2)cc1O` [Hesperidin], the “TG reduction rate (%)” value (HepG2 fatty liver cells) is reported as 34.81 ± 5.25%.
In the case of `COc1ccc([C@@H]2CC(=O)c3c(O)cc(O[C@@H]4O[C@H](CO[C@@H]5O[C@@H](C)[C@H](O)[C@@H](O)[C@H]5O)[C@@H](O)[C@H](O)[C@H]4O)cc3O2)cc1` [Didymin], the “TG reduction rate (%)” value (HepG2 fatty liver cells) is reported as 20.37 ± 12.69%.
In the case of `CCN(CC)C(=S)S` [DDTC, Diethyldithiocarbamic acid], the “CYP 2E1 inhibition ratio (%)” value (CYP2E1; 10 μM) is reported as 11.2 ± 2.4% and the “CYP 2E1 inhibition ratio (%)” value (CYP2E1; 50 μM) is reported as 51.2 ± 3.2%.
`Oc1cc(O)c2c(c1)O[C@H](c1ccc(O)c(O)c1)[C@@H](O)C2` [(+)-Catechin] was tested, and the “TG reduction rate (%)” value (HepG2 fatty liver cells) was 29.57 ± 4.02%.
For `COc1c(O)cc(O)c2c(=O)cc(-c3ccccc3)oc12` [Wongonin], the “TG reduction rate (%)” value (HepG2 fatty liver cells) was 20.78 ± 1.12%.
With `Oc1cc(O)c2c(c1)O[C@H](c1ccc(O)c(O)c1)[C@H](O)C2` [(−)-Epicatechin] the “TG reduction rate (%)” value (HepG2 fatty liver cells) was 10.76 ± 8.92%.
In the case of epigallocetechin-3-gallate, the ALT [1] is reported as 95 ± 36 IU/L, the AST [1] is reported as 144 ± 49 IU/L and the GSP [1] is reported as 312 ± 140 mg/L. For the same molecule, the “Total HAI score” value [1] was 1.7 ± 0.9.
With `O=C(O)c1ccc(O)c(O)c1` [Protocatechuic acid] the “TG reduction rate (%)” value (HepG2 fatty liver cells) was 18.57 ± 7.6%.
For `O=c1c(O)c(-c2ccc(O)cc2)oc2cc(O)cc(O)c12` [Kaempferol], the ALT [1] was 128 ± 40 IU/L, the AST [1] was 198 ± 105 IU/L and the GSP [1] was 456 ± 101 mg/L.
`C[C@@H]1O[C@@H](Oc2c(-c3ccc(O)c(O)c3)oc3cc(O)cc(O)c3c2=O)[C@H](O)[C@H](O)[C@H]1O` [Quercitrin] was tested, and the “TG reduction rate (%)” value (HepG2 fatty liver cells) was 9.15 ± 9.24%.
With `O=S(=O)([O-])NC1CCCCC1.[Na+]` [Sodium cyclamate] the “TG reduction rate (%)” value (HepG2 fatty liver cells) was 4.77 ± 4.49%.
`O=C([O-])c1ccccc1.[Na+]` [Sodium benzoate] was tested, and the “TG reduction rate (%)” value (HepG2 fatty liver cells) was 14.35 ± 4.86%.
`CC(=O)N[C@@H](CS)C(=O)O` [NAC, N-acetylcysteine, reference compound] showed an ALT [2] of 221 ± 69 IU/L, an AST [2] of 428 ± 74 IU/L and a GSP [2] of 393 ± 68 mg/L. For the same molecule, the “Total HAI score” value [2] was 4.2 ± 0.8 and the “Survival (Day 14, n/n)” value ([2]; Day 14) was 3/6.
`O=c1c(O)c(-c2ccc(O)c(O)c2)oc2c(O[C@@H]3O[C@H](CO)[C@@H](O)[C@H](O)[C@H]3O)c(O)cc(O)c12` [Gossypin] was tested, and the “TG reduction rate (%)” value (HepG2 fatty liver cells) was 20.25 ± 4.63%.
`COc1ccc([C@@H]2CC(=O)c3c(O)cc(O[C@@H]4O[C@H](CO)[C@@H](O)[C@H](O)[C@H]4O[C@@H]4O[C@@H](C)[C@H](O)[C@@H](O)[C@H]4O)cc3O2)cc1O` [Neohesperidin] was tested, and the “TG reduction rate (%)” value (HepG2 fatty liver cells) was 13.29 ± 7.21%.
With `COc1ccc(-c2cc(=O)c3c(O)cc(O)c(-c4cc(-c5cc(=O)c6c(O)cc(OC)cc6o5)ccc4OC)c3o2)cc1` [Sciadopitysin] the “TG reduction rate (%)” value (HepG2 fatty liver cells) was 21.83 ± 5.04%.
In the case of (−)-Epicatechin-3-gallate, the “TG reduction rate (%)” value (HepG2 fatty liver cells) is reported as 32.7 ± 4.33%.
With `O=c1cc(-c2ccc(O)c(O)c2)oc2cc(O[C@@H]3O[C@H](CO)[C@@H](O)[C@H](O)[C@H]3O)cc(O)c12` [Luteolin-7-glucoside] the “TG reduction rate (%)” value (HepG2 fatty liver cells) was 19.33 ± 4.59%.
